Results on two molecules are retold here after ChEMBL document CHEMBL3045635, “Synthesis and in vitro antimicrobial evaluation of novel 2-amino-6-(phenylthio)-4-(2-(phenylthio)quinolin-3-yl)pyridine-3,5-dicarbonitriles” (2013).

Holding throughout (format): functional
In one test the test system is Aspergillus fumigatus. Description: Antifungal activity against Aspergillus fumigatus MTCC 3008 after 48 hr by broth microdilution method. The note with it: MTCC 3008, 48 h. On the technique in general: In broth dilution the organism is exposed to a series of concentrations in liquid medium.
The next test deals with Bacillus subtilis. Description: Antibacterial activity against Bacillus subtilis MTCC 441 after 24 hr by broth microdilution method. As to conditions: MTCC 441, 24 h.
In the next test the test system is Streptococcus pneumoniae. Kind of test: Antibacterial activity against Streptococcus pneumoniae MTCC 1936 after 24 hr by broth microdilution method. As to conditions: MTCC 1936, 24 h.
The next test relates to Escherichia coli. Description: Antibacterial activity against Escherichia coli MTCC 443 after 24 hr by broth microdilution method. As to conditions: MTCC 443, 24 h.
The next test concerns Vibrio cholerae. Description: Antibacterial activity against Vibrio cholerae MTCC 3906 after 24 hr by broth microdilution method. The note with it: MTCC 3906, 24 h.
For the next test, the system named is Clostridium tetani. Kind of test: Antibacterial activity against Clostridium tetani MTCC 449 after 24 hr by broth microdilution method. The note with it: MTCC 449, 24 h.
The test system of the next test is Candida albicans. Kind of test: Antifungal activity against Candida albicans MTCC 227 after 48 hr by broth microdilution method. As to conditions: MTCC 227, 48 h.
Another test concerns Salmonella typhi. Description: Antibacterial activity against Salmonella enterica subsp. enterica serovar Typhi MTCC 98 after 24 hr by broth microdilution method. As to conditions: MTCC 98, 24 h.

Values after ≈ are worked out from the molar mass of the structure shown.

As to `Cc1ccc(Sc2nc3ccccc3cc2-c2c(C#N)c(N)nc(Sc3ccc(Cl)cc3)c2C#N)cc1`, the minimal inhibitory concentration (MIC) (commonly the least concentration at which growth counts as inhibited) in the test with Aspergillus fumigatus was greater than 1000 µg/mL; with Bacillus subtilis, 200 µg/mL (≈ 373 µM); against Streptococcus pneumoniae, 250 µg/mL (≈ 466 µM); with Escherichia coli, 200 µg/mL (≈ 373 µM); in the test on Vibrio cholerae it was 200 µg/mL (≈ 373 µM); with Clostridium tetani, 100 µg/mL (≈ 187 µM). The MIC is greater than 1000 µg/mL with Candida albicans and 200 µg/mL (≈ 373 µM) against Salmonella typhi.

Take `Cc1ccc(Sc2nc3ccc(C)cc3cc2C=O)cc1`: the MIC against Aspergillus fumigatus is 250 µg/mL (≈ 852 µM); in the test with Bacillus subtilis it was 250 µg/mL (≈ 852 µM); against Streptococcus pneumoniae, 250 µg/mL (≈ 852 µM); with Escherichia coli, 250 µg/mL (≈ 852 µM); in the test with Vibrio cholerae, 125 µg/mL (≈ 426 µM); against Clostridium tetani it was 250 µg/mL (≈ 852 µM). In addition, the MIC with Candida albicans turned out to be 500 µg/mL (≈ 1700 µM); in the test with Salmonella typhi, 200 µg/mL (≈ 682 µM).
